Here are results for 17 compounds from patent publication US20110212999A1, “TRIAZOLE DERIVATIVES AND THEIR USE AS NICOTINIC ACETYLCHOLINE RECEPTOR MODULATORS” (NEUROSEARCH A/S, priority 2008, published 2011).

T1 sequence (P43681 29-627 limits assumed): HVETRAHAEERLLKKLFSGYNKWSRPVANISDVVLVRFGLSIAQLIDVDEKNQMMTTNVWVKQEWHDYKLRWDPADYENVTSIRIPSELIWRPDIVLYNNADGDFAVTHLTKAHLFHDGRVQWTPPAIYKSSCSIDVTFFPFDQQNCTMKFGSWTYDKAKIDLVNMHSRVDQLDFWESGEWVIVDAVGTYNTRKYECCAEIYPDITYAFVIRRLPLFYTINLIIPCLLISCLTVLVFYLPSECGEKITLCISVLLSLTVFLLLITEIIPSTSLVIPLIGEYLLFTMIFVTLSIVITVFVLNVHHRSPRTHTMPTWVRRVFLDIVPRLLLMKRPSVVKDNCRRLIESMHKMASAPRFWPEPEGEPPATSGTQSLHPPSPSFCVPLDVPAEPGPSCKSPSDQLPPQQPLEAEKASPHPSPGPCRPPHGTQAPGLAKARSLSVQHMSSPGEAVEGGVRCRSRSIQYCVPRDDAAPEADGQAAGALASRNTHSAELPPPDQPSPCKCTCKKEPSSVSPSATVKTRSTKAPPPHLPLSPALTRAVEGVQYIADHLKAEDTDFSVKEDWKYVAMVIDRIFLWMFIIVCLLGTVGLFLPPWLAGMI
T1 sequence (P17787 26-502): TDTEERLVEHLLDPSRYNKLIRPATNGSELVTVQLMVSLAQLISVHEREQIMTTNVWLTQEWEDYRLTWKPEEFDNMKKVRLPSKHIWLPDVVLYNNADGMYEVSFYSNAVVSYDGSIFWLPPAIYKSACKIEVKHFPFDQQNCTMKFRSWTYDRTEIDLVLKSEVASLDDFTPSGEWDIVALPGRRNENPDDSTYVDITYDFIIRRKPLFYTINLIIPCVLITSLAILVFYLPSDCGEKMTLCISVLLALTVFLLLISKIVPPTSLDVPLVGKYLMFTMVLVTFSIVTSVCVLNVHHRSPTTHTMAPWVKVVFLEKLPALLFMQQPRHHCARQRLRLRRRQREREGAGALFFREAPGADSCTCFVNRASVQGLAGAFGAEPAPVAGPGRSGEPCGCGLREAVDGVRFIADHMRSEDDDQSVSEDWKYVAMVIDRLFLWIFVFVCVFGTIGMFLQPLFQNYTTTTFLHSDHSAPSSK

Test system in the first data set: not given
Experiment: not given
Settings: not given
On to `Fc1cccc(-n2cc(-c3cccnc3)nn2)c1` [Compound 1R, 3-[1-(3-Fluoro-phenyl)-1H-[1,2,3]triazol-4-yl]-pyridine], for which the melting point (as a rule, the temperature, or range, at which the solid turns liquid) is 156.3 to 158.2 °C. Still for that read-out and setting: the figure for `Fc1cncc(-n2cc(-c3cccnc3)nn2)c1` [Compound 1O, 3-Fluoro-5-(4-pyridin-3-yl-[1,2,3]triazol-1-yl)-pyridine] is 190.6 to 191.7 °C; for `COc1ccc(-c2cn(-c3cccnc3)nn2)cn1` [Compound 1N, 2-Methoxy-5-(1-pyridin-3-yl-1H-[1,2,3]triazol-4-yl)-pyridine] it is 205.6 to 206.9 °C; for `Fc1ccc(-c2cn(-c3cccnc3)nn2)cn1` [Compound 1M, 2-Fluoro-5-(1-pyridin-3-yl-1H-[1,2,3]triazol-4-yl)-pyridine] it is 187 to 188.7 °C.

`N#Cc1cccc(-n2cc(-c3cccnc3Cl)nn2)c1` [Compound 1J, 3-[4-(2-Chloro-pyridin-3-yl)-[1,2,3]triazol-1-yl]-benzonitrile] registered a melting point of 181 to 182.6 °C. Still for that read-out and setting: the value for `Brc1cncc(-n2cc(-c3cccnc3)nn2)c1` [Compound 1Q, 3-Bromo-5-(4-pyridin-3-yl-[1,2,3]triazol-1-yl)-pyridine] was 226.2 to 227.8 °C. Same read-out and setting: the value for `Fc1cccc(Cl)c1-n1cc(-c2cccnc2)nn1` [Compound 1I, 3-[1-(2-Chloro-6-fluoro-phenyl)-1H-[1,2,3]triazol-4-yl]-pyridine] was 94.5 to 97.1 °C.

The compound `Fc1ccc(-n2cc(-c3cccnc3)nn2)cc1` [Compound 1S, 3-[1-(4-Fluoro-phenyl)-1H-[1,2,3]triazol-4-yl]-pyridine] showed a melting point of 179.9 to 190.9 °C. Same read-out and setting: the value for `Fc1ccc(-n2cc(-c3cccnc3)nn2)cn1` [Compound 1P, 2-Fluoro-5-(4-pyridin-3-yl-[1,2,3]triazol-1-yl)-pyridine] was 221.3 to 222.6 °C. On the same count and under the same terms, the figure for `N#Cc1cccc(-n2cc(-c3ccc(Cl)nc3)nn2)c1` [Compound 1H, 3-[4-(6-Chloro-pyridin-3-yl)-[1,2,3]triazol-1-yl]-benzonitrile] is 219.3 to 220 °C; for `c1cncc(-c2cn(-c3cccnc3)nn2)c1` [Compound 1B, 3-(1-Pyridin-3-yl-1H-[1,2,3]triazol-4-yl)-pyridine] it is 217 to 219 °C; for `Fc1cccc(Cl)c1-c1cn(-c2cccnc2)nn1` [Compound 1E, 3-[4-(2-Chloro-6-fluoro-phenyl)-[1,2,3]triazol-1-yl]-pyridine] it is 94 to 95.2 °C.

In turn, `[C-]#[N+]c1cccc(-c2cn(-c3ccc(Cl)nc3)nn2)c1` [Compound 1G, 2-Chloro-5-[4-(3-isocyano-phenyl)-[1,2,3]triazol-1-yl]-pyridine] returned a melting point of 202.2 to 203.6 °C. Regarding `Fc1cncc(-c2cn(-c3cccnc3)nn2)c1` [Compound 1L, 3-Fluoro-5-(1-pyridin-3-yl-1H-[1,2,3]triazol-4-yl)-pyridine], the melting point was 190.2 to 191.6 °C. On the same count and under the same terms, the figure for `[C-]#[N+]c1cccc(-c2cn(-c3cccnc3Cl)nn2)c1` [Compound 1K, 2-Chloro-3-[4-(3-isocyano-phenyl)-[1,2,3]triazol-1-yl]-pyridine] is 184 to 185 °C.

Another data set concerns the target T1, human nicotinic acetylcholine receptor subtype a4b2 (Homo sapiens, UniProt P17787+P43681).
T1 construct: expressed in transfected cells; host or cells: HEK-293
Description: FLIPR nAChR a4b2 positive allosteric modulator activity (shift of nicotine concentration-response). As to conditions: nicotine +/- test compound, HEK-293 cells stably expressing hα4β2. The class given is cell-based. The protocol:
Characterization of hα4β2 positive allosteric modulators using FLIPR
The modulator activity is determined as a fluorescence-based assay using a Fluorometric Imaging Plate Reader (FLIPR) as described below in more detail.
Full concentration-response curves of nicotine +/− test compound are generated and delta pEC50 values are calculated based on EC50 values for nicotine +/− test compound. EC50 values (Effective Concentration 50%) represent the concentration of the nicotine, at which the nicotine-induced response is 50% of the maximal nicotine-induced response.
Preferred compounds of the invention show an activity determined as delta pEC50 values above 1 in the presence of 10 μM of the test compound compared to nicotine alone.
With `N#Cc1ccc(-n2cc(-c3cccnc3)nn2)o1` [Compound 2, 5-(4-pyridin-3-yl-[1,2,3]triazol-1-yl)-furan-2-carbonitrile], the Delta pEC50 is 1.2. On the same count and under the same terms, the value for `N#Cc1cccc(-n2cc(-c3cccnc3)nn2)c1` [Compound 1, 3-(4-Pyridin-3-yl-[1,2,3]triazol-1-yl)-benzonitrile] was 1.6.
